Reference: US8361740B2, “Peptide standards” (King's College London, priority 2007, dated 2013)
Non-standard residues stand in square brackets, D forms with d. No end group written: not given here. K∗ = stable isotope labelled lysine

System: trypsin
Assay: Tryptic digestion of peptide standards, released T6 peptide (LVNEVTEFAK) measured by LC-MSMS (MRM)
Type: biochemical
Conditions: for IS Peak Area (counts): LVNEVTEFAK* signal, internal std + digested peptide 8; for Analyte Peak Area (counts): trypsin 37° C. 30 min
Text: The first experiment was test the hypothesis that the LVNEVTEFAKT (SEQ ID NO:7) peptide is cleaved to LVNEVTEFAK (SEQ ID NO:10) by trypsin as efficiently as the longer peptides. Using LVNEVTEFAK* (SEQ ID NO:10) as the internal standard peptides (1-5, and 8) were digested using standard protocol. […] This implies that any internal standard peptide where cysteine is the N-terminal amino acid will require the next amino acid in addition to be effective.
Experiment to Determine Number of Amino Acids Required Following Trypsin Digest Site for Digestion.
Assay 50 μl peptide 1-6 & 8 (blank was deionised water)+50 μl internal std Add 10 μl acetonitrile & 10 μl 1% formic acid, vortex mix, and stand for 5 min Add 6 μl […] ammonium bicarbonate & 5 μl trypsin (5 mg/l), vortex mix, and pulse centrifuge (6 sec) Incubate at 37° C. for 30 min & add 500 μl HPLC solvent (acetonitrile:water 1:1 with 0.025% formic acid) Vortex mix and transfer to 96-deep well polypropylene plate Sample volume, 5 μl; flow rate, 500 μl/min Chromatography—teicoplanin guard column MSMS parameters—generic peptide ionisation and doubly charged ion fragmentation T6 doubly charged ion m/z 575.4 and internal std m/z 579.4 Product ions (m/z): 937.4, 823.4, 694.4—internal std (m/z): 945.4, 831.4, 702.4 (150 ms/MRM) Results

## LVNEVTEFAK*T (LVNEVTEFA[K∗]T) [peptide 8]
3 different MRMs, LVNEVTEFAK* as internal standard
  signal for LVNEVTEFAK after tryptic digestion: no signal
LVNEVTEFAK* as internal standard
  LVNEVTEFAK* signal after tryptic digestion: increased by the expected amount
T6 694
  Internal standard area Ratio (IS + peptide 8 / Mean (Blank, 1-6)): 1.87
T6 694 transition
  IS Peak Area (counts): 238000 counts
T6 823
  Internal standard area Ratio (IS + peptide 8 / Mean (Blank, 1-6)): 1.80
T6 823 transition
  IS Peak Area (counts): 83000 counts
T6 937
  Internal standard area Ratio (IS + peptide 8 / Mean (Blank, 1-6)): 1.91
T6 937 transition
  IS Peak Area (counts): 253000 counts
Analyte T6 694 (m/z 575.4/694.4)
  Analyte Peak Area (counts): 149 counts
Analyte T6 694 / internal std LVNEVTEFAK*
  Area Ratio: 0.00062
Analyte T6 823 (m/z 575.4/823.4)
  Analyte Peak Area (counts): 62 counts
Analyte T6 823 / internal std LVNEVTEFAK*
  Area Ratio: 0.00074
Analyte T6 937 (m/z 575.4/937.4)
  Analyte Peak Area (counts): 147 counts
Analyte T6 937 / internal std LVNEVTEFAK*
  Area Ratio: 0.00058
Within the limits of the experiment
  recovery after tryptic digestion: full recovery
